Experimental data taken from ChEMBL document CHEMBL6071153, “Design, synthesis, and evaluation of antitumor activity in Pseudolaric acid B Azole derivatives: Novel and potent angiogenesis inhibitor via regulation of the PI3K/AKT and MAPK mediated HIF-1/VEGF signaling pathway” (Eur J Med Chem, 2024).

Assays:
[1] = Inhibition of VEGFR mediated endocytosis in human SiHa cells incubated for 24 hrs under hypoxic condition by ELISA; format: cell-based
[2] = system: SiHa; experiment: Cytotoxicity against human SiHa cells assessed as inhibition of cell growth incubated for 24 hrs under normoxic condition by MTT assay; format: functional, cell-based
[3] = Inhibition of HIF-1 transcriptional activity in human HCT-116 cells preincubated for 1 hr under normoxic condition followed by 24 hrs incubation under hypoxic condition by luciferase reporter assay; format: cell-based
[4] = Toxicity in Balb/c mouse xenografted with human SiHa cells assessed as reduction in body weight at 30 mg/kg,ip administration measured after 22 days; format: organism-based; conditions: in vivo, 528 h, time 22 day

| SMILES | IC50 [1] [µM] | IC50 [2] [µM] | IC50 [3] [µM] | Activity [4] |
| --- | --- | --- | --- | --- |
| COC(=O)C1=CC[C@@]23CC[C@@H]([C@@](C)(/C=C/C=C(\C)C(=O)NCc4cn(-c5ccc(OC)cc5)nn4)OC2=O)[C@@]3(OC(C)=O)CC1 | 5.06 | > 30 | – | – |
| C[C@H]1[C@H](C)CC[C@]2(C(=O)OCCCn3ncn(-c4ccccc4)c3=O)CC[C@]3(C)C(=CC[C@@H]4[C@@]5(C)CCC(O)C(C)(C)[C@@H]5CC[C@]43C)[C@H]12 (some centres undefined) | – | – | 36.9 | – |
| COC(=O)C1=CC[C@@]23CC[C@@H]([C@@](C)(/C=C/C=C(\C)C(=O)OCc4nc(-c5ccc(OC)cc5)no4)OC2=O)[C@@]3(OC(C)=O)CC1 | 4.16 | > 30 | – | – |
| COC(=O)C1=CC[C@@]23CC[C@@H]([C@@](C)(/C=C/C=C(\C)C(=O)OCc4nc(-c5ccc(Cn6cncn6)cc5)no4)OC2=O)[C@@]3(OC(C)=O)CC1 | > 5 | > 30 | – | – |
| COC(=O)C1=CC[C@@]23CC[C@@H]([C@@](C)(/C=C/C=C(\C)C(=O)OCc4nc(-c5ccc(Cl)cc5)no4)OC2=O)[C@@]3(OC(C)=O)CC1 | 1.51 | > 30 | – | – |
| COC(=O)C1=CC[C@@]23CC[C@@H]([C@@](C)(/C=C/C=C(\C)C(=O)OCc4cn(Cc5ccc(Cl)c(Cl)c5)nn4)OC2=O)[C@@]3(OC(C)=O)CC1 | 2.79 | > 30 | – | – |
| COC(=O)C1=CC[C@@]23CC[C@@H]([C@@](C)(/C=C/C=C(\C)C(=O)OCCn4ncn(-c5ccc(OC)cc5)c4=O)OC2=O)[C@@]3(OC(C)=O)CC1 | > 5 | > 30 | – | – |
| COC(=O)C1=CC[C@@]23CC[C@@H]([C@@](C)(/C=C/C=C(\C)C(=O)OCc4cn(Cc5ccc(OC)cc5)nn4)OC2=O)[C@@]3(OC(C)=O)CC1 | 1.75 | > 30 | – | – |
| COC(=O)C1=CC[C@@]23CC[C@@H]([C@@](C)(/C=C/C=C(\C)C(=O)OCCn4ncn(-c5ccc(Cl)c(Cl)c5)c4=O)OC2=O)[C@@]3(OC(C)=O)CC1 | 1.17 | > 30 | – | – |
| COC(=O)C1=CC[C@@]23CC[C@@H]([C@@](C)(/C=C/C=C(\C)C(=O)OCC(=O)NCc4cn(-c5ccc(OC)cc5)nn4)OC2=O)[C@@]3(OC(C)=O)CC1 | 3.4 | > 30 | – | – |
| COC(=O)C1=CC[C@@]23CC[C@@H]([C@@](C)(/C=C/C=C(\C)C(=O)OCc4cn(Cc5ccc(F)cc5)nn4)OC2=O)[C@@]3(OC(C)=O)CC1 | 3.89 | > 30 | – | – |
| OC1CCN(CCOc2cccc(Cn3nc(-c4nc(-c5ccc(OC(F)(F)F)cc5)no4)c4ccccc43)c2)CC1 | – | – | 0.55 | – |
| COC(=O)C1=CC[C@@]23CC[C@@H]([C@@](C)(/C=C/C=C(\C)C(=O)OCc4nnc(-c5ccccc5)o4)OC2=O)[C@@]3(OC(C)=O)CC1 | > 5 | > 30 | – | – |
| O=c1[nH]cc(F)c(=O)[nH]1 [FLUOROURACIL] | – | – | – | Non-Toxic |
| COC(=O)C1=CC[C@@]23CC[C@@H]([C@@](C)(/C=C/C=C(\C)C(=O)OCc4cc(-c5ccc(Cl)cc5)no4)OC2=O)[C@@]3(OC(C)=O)CC1 | 4.44 | > 30 | – | – |
| COC(=O)C1=CC[C@@]23CC[C@@H]([C@@](C)(/C=C/C=C(\C)C(=O)OCc4nc(-c5ccccc5)no4)OC2=O)[C@@]3(OC(C)=O)CC1 | 2 | > 30 | – | – |
| COC(=O)C1=CC[C@@]23CC[C@@H]([C@@](C)(/C=C/C=C(\C)C(=O)OCC(=O)Nc4ccccc4)OC2=O)[C@@]3(OC(C)=O)CC1 | 4.03 | > 30 | – | – |
| COC(=O)C1=CC[C@@]23CC[C@@H]([C@@](C)(/C=C/C=C(\C)C(=O)NCc4cn(-c5ccc(Cl)c(Cl)c5)nn4)OC2=O)[C@@]3(OC(C)=O)CC1 | > 5 | > 30 | – | – |
| COC(=O)C1=CC[C@@]23CC[C@@H]([C@@](C)(/C=C/C=C(\C)C(=O)OCC(=O)Nc4ccc(Cl)cc4)OC2=O)[C@@]3(OC(C)=O)CC1 | 4.38 | > 30 | – | – |
| COC(=O)C1=CC[C@@]23CC[C@@H]([C@@](C)(/C=C/C=C(\C)C(=O)OCc4nnc(-c5ccc(OC)cc5)o4)OC2=O)[C@@]3(OC(C)=O)CC1 | > 5 | > 30 | – | – |
| COC(=O)C1=CC[C@@]23CC[C@@H]([C@@](C)(/C=C/C=C(\C)C(=O)NCc4cn(-c5ccc(Cl)cc5)nn4)OC2=O)[C@@]3(OC(C)=O)CC1 | 3.74 | > 30 | – | – |
